This note sets out measurements from BindingDB's records for doi:10.1124/jpet.103.049262 (Sanofi-Synthelabo Research, 2003).

For test [1], the target named is Neuronal acetylcholine receptor subunit alpha-4 (Homo sapiens, UniProt P43681).
The target of test [2] is Acetylcholine receptor subunit alpha (Homo sapiens, UniProt P02708).
Sequence of Acetylcholine receptor subunit alpha (P02708 as listed by the source): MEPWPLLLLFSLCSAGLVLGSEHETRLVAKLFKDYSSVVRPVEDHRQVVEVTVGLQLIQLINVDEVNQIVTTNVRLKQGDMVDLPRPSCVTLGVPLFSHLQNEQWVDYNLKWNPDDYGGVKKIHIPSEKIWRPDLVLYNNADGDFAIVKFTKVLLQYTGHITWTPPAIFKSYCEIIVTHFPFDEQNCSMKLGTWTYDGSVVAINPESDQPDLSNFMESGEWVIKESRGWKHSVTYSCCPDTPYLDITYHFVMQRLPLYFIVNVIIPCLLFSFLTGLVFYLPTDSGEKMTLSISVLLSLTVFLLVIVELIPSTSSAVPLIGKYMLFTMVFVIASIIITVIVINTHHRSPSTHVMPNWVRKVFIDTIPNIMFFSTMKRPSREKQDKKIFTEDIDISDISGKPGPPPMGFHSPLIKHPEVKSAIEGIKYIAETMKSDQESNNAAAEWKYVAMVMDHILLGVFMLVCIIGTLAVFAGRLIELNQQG

Sequence of Neuronal acetylcholine receptor subunit alpha-4 (P43681 whole entry): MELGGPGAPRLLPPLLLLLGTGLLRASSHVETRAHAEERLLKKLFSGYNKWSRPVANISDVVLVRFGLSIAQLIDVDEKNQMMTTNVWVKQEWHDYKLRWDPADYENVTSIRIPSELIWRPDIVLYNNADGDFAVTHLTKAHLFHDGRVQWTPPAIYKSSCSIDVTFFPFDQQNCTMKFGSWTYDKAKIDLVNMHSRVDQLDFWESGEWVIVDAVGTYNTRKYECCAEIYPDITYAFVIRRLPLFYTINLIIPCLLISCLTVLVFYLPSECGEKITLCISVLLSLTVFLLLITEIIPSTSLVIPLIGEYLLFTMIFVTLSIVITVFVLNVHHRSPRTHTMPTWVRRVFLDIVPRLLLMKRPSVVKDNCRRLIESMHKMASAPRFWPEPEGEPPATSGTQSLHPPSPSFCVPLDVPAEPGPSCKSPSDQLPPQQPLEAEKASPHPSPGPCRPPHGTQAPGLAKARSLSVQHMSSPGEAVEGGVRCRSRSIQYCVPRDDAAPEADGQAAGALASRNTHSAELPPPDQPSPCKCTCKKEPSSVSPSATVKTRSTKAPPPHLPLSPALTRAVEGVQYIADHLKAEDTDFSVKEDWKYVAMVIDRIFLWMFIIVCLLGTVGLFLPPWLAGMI

One may read the Ki as the dissociation constant of the complex between target and ligand, obtained from inhibition or displacement. `c1cnc2c(c1)O[C@H]1CCN3CC[C@@]1(C2)C3`: the Ki in test [1] came out at 0.036 µM; in test [2], 6 µM.
